Values quoted from earlier work in publication PMC11370232, “Repurposing of a library for high-content screening of inhibitors against Echinococcus granulosus” (Parasites & Vectors, 2024).
Counter-ions that a name gives are not always drawn.

What was measured:
[1] = tested on: CDK1, 2, 4, 6 and 9; design: method as in SelleckChem library description; details: read-out: IC50, CDK1, 2, 4, 6 and 9; cell-free assays; ref SelleckChem library description; cited from earlier work
[2] = tested on: Akt1; design: method as in SelleckChem library description; details: ref SelleckChem library description; cited from earlier work
[3] = tested on: Akt2; design: method as in SelleckChem library description; details: ref SelleckChem library description; cited from earlier work
[4] = tested on: Akt3; design: method as in SelleckChem library description; details: ref SelleckChem library description; cited from earlier work
[5] = tested on: p70S6K; design: method as in SelleckChem library description; details: ref SelleckChem library description; cited from earlier work
[6] = tested on: PKA; design: method as in SelleckChem library description; details: ref SelleckChem library description; cited from earlier work
[7] = tested on: ROCKI; design: method as in SelleckChem library description; details: ref SelleckChem library description; cited from earlier work
[8] = tested on: ROCKII; design: method as in SelleckChem library description; details: ref SelleckChem library description; cited from earlier work
[9] = tested on: HER2; design: method as in SelleckChem library description; details: ref SelleckChem library description; cited from earlier work
[10] = tested on: Pim1; design: method as in SelleckChem library description; details: ref SelleckChem library description; cited from earlier work
[11] = tested on: Pim2; design: method as in SelleckChem library description; details: ref SelleckChem library description; cited from earlier work
[12] = tested on: Pim3; design: method as in SelleckChem library description; details: ref SelleckChem library description; cited from earlier work
[13] = target: DNA synthesis; design: method as in SelleckChem library description; details: cell-free assay; ref SelleckChem library description; cited from earlier work
[14] = tested on: Rac1 in MDA-MB-435 and MDA-MB-231 cells; design: method as in SelleckChem library description; details: ref SelleckChem library description; cited from earlier work
[15] = target: glucokinase (GK); design: method as in SelleckChem library description; details: ref SelleckChem library description; read-out: EC50, glucokinase activation; cited from earlier work
[16] = target: Bcl-2; design: method as in SelleckChem library description; details: cell-free assay; ref SelleckChem library description; cited from earlier work
[17] = tested on: EGFR; design: method as in SelleckChem library description; details: ref SelleckChem library description; cited from earlier work
[18] = tested on: PDGFR; design: method as in SelleckChem library description; details: ref SelleckChem library description; cited from earlier work
[19] = tested on: EGFR(L858R); details: ref SelleckChem library description; cited from earlier work
[20] = tested on: EGFR(E746_A750); design: method as in SelleckChem library description; details: ref SelleckChem library description; cited from earlier work

**Q.** What does the source list for `NC[C@@](O)(c1ccc(Cl)cc1)c1ccc(-c2cn[nH]c2)cc1` [AT13148]?
**A.** IC50 [2]: 38 nM; IC50 [3]: 402 nM; IC50 [4]: 50 nM; IC50 [5]: 8 nM; IC50 [6]: 3 nM; IC50 [7]: 6 nM; IC50 [8]: 4 nM

**Q.** With `CN(C)C/C=C/C(=O)Nc1cc2c(Nc3ccc(F)c(Cl)c3)ncnc2cc1O[C@H]1CCOC1` [Afatinib (BIBW2992) Dimaleate] as the molecule, how does the IC50 [9] read?
**A.** 14 nM

**Q.** For `CN1CCCN(C(=O)c2cccc(-c3ccc(/C=C4/C(=O)Nc5ccc(Cl)cc54)o3)c2)CC1` [CX-6258 HCl], which IC50 [10] is on record?
**A.** […]

**Q.** And the IC50 [11]?
**A.** 25 nM

**Q.** What about the IC50 [12] of the same molecule?
**A.** 16 nM

**Q.** Which Ki [13] does the source give for `COc1cccc2c1C(=O)c1c(O)c3c(c(O)c1C2=O)C[C@@](O)(C(C)=O)C[C@@H]3O[C@H]1C[C@H](N)[C@H](O)[C@H](C)O1` [Daunorubicin HCl] here?
**A.** 20 nM

**Q.** With `CCn1c2ccccc2c2cc(Nc3ccnc(NCCCN4CCOCC4)n3)ccc21` [EHop-016] as the molecule, how does the IC50 [14] read?
**A.** 1100 nM

**Q.** For `O=C(Nc1ncc(SCCN2CCCC2)s1)[C@]1(c2ccc(S(=O)(=O)C3CC3)cc2)C[C@H]1C1CCCCC1` [LY2608204], which EC50 [15] is on record?
**A.** 42 nM

**Q.** With `COC1=CC(c2cc3ccccc3[nH]2)=N/C1=C\c1[nH]c(C)cc1C` [Obatoclax Mesylate (GX15-070), Obatoclax Mesylate] as the molecule, how does the Ki [16] read?
**A.** 220 nM

**Q.** For `CC(C)(C)c1cc(C=C(C#N)C#N)cc(C(C)(C)C)c1O` [Tyrphostin 9], which IC50 [17] is on record?
**A.** 460000 nM

**Q.** What about the IC50 [18] of the same molecule?
**A.** 500 nM

**Q.** With `C=CC(=O)Nc1cccc(Oc2nc(Nc3ccc(N4CCN(C)CC4)cc3)ncc2Cl)c1` [WZ3146] as the molecule, how does the IC50 [19] read?
**A.** 2 nM

**Q.** What about the IC50 [20] of the same molecule?
**A.** 2 nM
